Experiments:
Arid5a = molecular target: T1, Arid5a (Mus musculus, UniProt Q3U108); experiment: Luciferase assay of Arid5a stabilizing function on 3′UTR of target mRNAs in HEK293T cells; assay type: cell-based
T1 construct: Flag; expressed in transfected cells; host or cells: HEK293T
T1 sequence (Q3U108 1-590): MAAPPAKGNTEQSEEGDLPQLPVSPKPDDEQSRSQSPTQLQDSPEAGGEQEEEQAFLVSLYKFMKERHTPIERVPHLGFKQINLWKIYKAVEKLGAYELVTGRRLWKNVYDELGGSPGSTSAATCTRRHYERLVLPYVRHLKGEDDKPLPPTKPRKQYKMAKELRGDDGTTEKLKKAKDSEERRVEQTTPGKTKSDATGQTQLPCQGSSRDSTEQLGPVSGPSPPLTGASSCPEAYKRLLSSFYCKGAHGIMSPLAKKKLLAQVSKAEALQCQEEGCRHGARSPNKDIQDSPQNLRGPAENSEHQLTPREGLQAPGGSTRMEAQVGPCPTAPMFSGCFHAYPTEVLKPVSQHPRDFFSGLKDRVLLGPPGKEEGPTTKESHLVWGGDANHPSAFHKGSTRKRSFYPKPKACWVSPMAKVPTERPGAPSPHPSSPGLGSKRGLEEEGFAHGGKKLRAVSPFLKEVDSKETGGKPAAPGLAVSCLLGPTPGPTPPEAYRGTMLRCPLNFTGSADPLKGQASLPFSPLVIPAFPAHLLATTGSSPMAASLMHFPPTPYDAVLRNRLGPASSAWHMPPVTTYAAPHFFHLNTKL
Experimental: Briefly, HEK293T cells were transfected with luciferase pGL-3 and empty pcDNA3.1 plasmids (Control), or pGL-3 plasmid encoding the 3′UTR of OX40, Il6 or Stat3, together with Arid5a-expressing pcDNA3.1 plasmid. The cells were treated with DMSO (Control and Arid5a) or POE (10-60 μM) dissolved in DMSO. The mouse Arid5a (NP_001165676.1) cDNA (WT; ENSMUST00000115032.7) was cloned in a Flag-tagged pcDNA3.1 plasmid at Xba1 and Ecor1. Renilla-expressing plasmid was used as a control. Luciferase activity from cell lysates is shown relative to Control in FIGS. 1A-1C.
HEK293 T cells (ATCC) were transfected (Lipofectamine LTX; Invitrogen) with luciferase pGL-3 and empty peDNA 3.1 plasmids (Control), or pGL-3 plasmid encoding the 3′UTR of IL6 together with Arid5a-expressing pcDNA3.1 plasmid. Renila-expressing plasmid was used as a Control. The cells were treated with DMSO (Control and Arid5a) or POE or its analogs A1-3 (40 μM; Aurora) dissolved in DMSO. The mouse Arid5a (NP_001165676.1) cDNA (WT; ENSMUST00000115032.7) was cloned in a Flag-tagged pcDNA3.1 plasmid at Xba1 and EcoR1.
To examine whether the Arid5a inhibitors interact with the target domain of Arid5a (Pocket X), substitution mutations were introduced to the wild-type (WT) Arid5a at Phe56, Tyr137 and His140 to produce mutant Arid5a (mArid5a). Mutations were introduced to substitute Phe56 with Cys, Tyr137 with Ala, and His140 with Ala. Luciferase activity from cell lysates was quantified using a Dual Luciferase kit (Promega) and the results were shown relative to the Control.

[1] = molecular target: T2, Arid5a binding to OX40 ADE-like stem loop (Mus musculus, UniProt Q3U108); experiment: RNA-Arid5a binding assay; conditions: Flag-Arid5a-enriched HEK293T lysate, immunoblot, FIG. 4
T2 construct: expressed in transfected cells; host or cells: HEK293T (cell lysate)
T2 sequence (Q3U108 1-590): T1 sequence (Q3U108 1-590)
Experimental: An RNA-protein binding assay was performed to confirm that POE inhibits the physical binding of Arid5a to the (ADE)-like stem loop in the OX40 3′UTR. Briefly, a 3′-biotinylated OX40 ADE-like stem loop (RNA; 5′-[…]-3′) (SEQ ID NO: 2) was conjugated to streptavidin beads. The OX40 ADE-like stem loop/streptavidin bead conjugate was then mixed with Flag-Arid5a-enriched HEK293T cell lysate, washed, and proteins bound to RNA were eluted for immunoblot. Anti-Flag antibodies were used to detect Flag-Arid5a in the eluate by SDS-PAGE analysis.

IMQ-induced psoriasis = IMQ-induced psoriasis model; assay type: in vivo, male BALB/c mice
Experimental: Experimental psoriasis was induced following a modified method described previously (Sun et al. 2013). To induce disease in male BALB/c mice (6-8 weeks; n=6), imiquimod (IMG; Sichuan Med-Shine Pharmaceutical) at 5% was applied topically at 20 mg/cm^2 on the inside of the right ear for 8 consecutive days. An evaluation system for assessment of erythema and thickness of the ear was developed. Erythema was assessed using a table with red […] (0-4) and ear thickness (0-4) measured using a digital caliber on days 2, 4, 6, and 8 after first IMQ application. The sum of the two parameters scores (ranging from 0-8) was used to indicate the overall clinical score. Treatment ointment was prepared by mixing 1 mg of DMSO-dissolved POE or its representative analogs including POE A2 or POE A3 with 20 gm of Vaseline Petroleum Jelly Original (vehicle, Unilever Inc.); the mixture was then incubated at room temperature overnight. From day 0 to day 8 the mice were treated topically with the treatment ointment (40 mg/cm^2) or Vaseline (IMQ/control). The mRNAs encoding Il6 and Il17a were isolated from whole biopsies of the ear (day 8) and reverse transcribed to make cDNA. The cDNA was then amplified by real-time PCR using TaqMan Gene Expression Assays (Mm00446190_ml, Mm00439618_ml, respectively; Applied Biosystems). The relative expression of mRNAs was calculated by the ΔΔCt method and presented relative to that of IMQ control mice.

[2] = topical ointment, day 8, FIG. 8B

`O=C(CSc1nnc(-c2ccncc2)o1)c1ccccc1` [POE, 1-Phenyl-2-(5-pyridin-4-yl-[1,3,4]oxadiazol-2-ylsulfanyl)-ethanone] was tested, and the “Arid5a stabilizing function on Il6 3′UTR (luciferase activity relative to Control)” value (Arid5a; 40 μM, HEK293 T cells, WT Arid5a, FIG. 6) was “abolished the stabilizing function of Arid5a”, the “Arid5a stabilizing function on the OX40 3′UTR (luciferase activity relative to Control)” value (Arid5a; POE 10-60 μM, HEK293T cells, FIG. 1A) was “inhibits Arid5a stabilizing function” and the “Arid5a stabilizing function on the Il6 3′UTR (luciferase activity relative to Control)” value (Arid5a; POE 10-60 μM, HEK293T cells, FIG. 1B) was “inhibits Arid5a stabilizing function”. For the same compound, the “Arid5a stabilizing function on the Stat3 3′UTR (luciferase activity relative to Control)” value (Arid5a; POE 10-60 μM, HEK293T cells, FIG. 1C) was “inhibits Arid5a stabilizing function”, the “Physical binding of Arid5a to OX40 ADE-like stem loop” value [1] was “inhibited the physical binding of Arid5a to OX40 ADE-like stem loop in a concentration-dependent manner” and the “Clinical scores (erythema and thickness of the right ear)” value (IMQ-induced psoriasis; topical ointment 40 mg/cm^2 day 0 to 8, vs Vaseline, FIG. 8A) was “comparably reduced clinical scores”. For the same compound, the “Il6 mRNA expression in whole biopsies of the right ear” value (IMQ-induced psoriasis; [2]) was “suppressed mRNA expression” and the “Il17a mRNA expression in whole biopsies of the right ear” value (IMQ-induced psoriasis; [2]) was “suppressed mRNA expression”.
